From US20220169645A1, “COMPOUNDS AS BRUTON TYROSINE KINASE INHIBITORS, PREPARATION METHODS AND MEDICAL APPLICATIONS THEREOF” (Eternity Bioscience Inc., priority 2020, published 2022) come the findings set out here.

For one assay, the target named is T1, human BTK-WT (Homo sapiens, UniProt Q06187).
T1 construct: host or cells: HEK293 (ATCC CRL1573), lentiviral transduction, puromycin selected
The experiment in a line: BTK-Y223 autophosphorylation in HEK293 cells stably expressing BTK-WT (HTRF). Conditions: 2 hours treatment. It is filed as cell-based. The method, then: (§1) HEK293 cells (purchased from ATCC, CRL1573) stably expressing wild type BTK or mutant C481S BTK were generated by lentiviral transduction of constructs containing human BTK-WT or BTK-C481S mutant (Genecopoeia, Lv201 vector). Cells expressing BTK proteins were selected with puromycin treatment (1 μM). The protein expression was confirmed by western blotting of BTK and BTK-Y223 autophosphorylation. The cells were cultured in MEM medium (Sigma M2279), 10% heat-Inactivated FBS (Gibco 10100), penicillin streptomycin (Thermal Fisher 15140122), and puromycin (InvivoGen QLL-41-03). The BTK-Y223 phosphorylation was quantified using BTK phospho-Y223 kit (Cisbio 63ADK017PEG). HEK293/BTK stable cells were seeded in a 96-well plate at a density of 10 thousand cells/well in a total volume of 100 μL of media. Cells were incubated overnight in a humidified, 5% CO2 cell culture incubator at 37° C. The next day, the cells were treated with diluted compounds in a humidified, 5% CO2 cell culture incubator at 37° C. for 2 hours. The medium was removed from each well, and 50 μL of 1× lysis buffer from the assay kit was added into each well. The cells were incubated for 30 min at room temperature with shaking. Then 16 μL of lysate was transferred to a PROXIPLATE 384-plate (PerkinElmer 6008230), followed by addition of 4 μL of HTRF pre-mixed antibodies. After incubation overnight at room temperature, fluorescence signals in the plates were read on PHERAstar FSX instrument, using HTRF settings ([…]).
(§2) The relative cellular pBTK inhibition was calculated by HTRF signal change: The average of positive control well reading, and average of negative control reading were used as controls to calculate inhibition percentage.
(§3) The data was input into GraphPad Prism, using function “log(inhibitor) vs. response—Variable slope (four parameters)” to get IC50 values.

The target of another assay is T2, full-length human BTK-WT (Homo sapiens, UniProt Q06187).
T2 construct: The full-length human BTK-WT (ABCAM205800); purchased Abcam ABCAM205800; host or cells: Baculovirus infected Sf9 cells
Kind of assay: BTK-WT kinase activity assay (ADP-Glo). It is filed as biochemical. Conditions: BTK kinase inhibition, 30 min preincubation, 90 min reaction. On the procedure: (§4) These assays are to determine the degree of inhibition of the BTK-WT and BTK-C481S mutant kinase activity by measuring the amount of ADP produced during the enzymatic reactions. […] Compounds, BTK enzymes, ATP and substrate were all prepared in ix kinase assay buffer by diluting 5× stock of kinase assay buffer III (Signal Chem K03-09), in H2O, and adding DTT (Thermo ScientificA39255) for a final concentration of 50 μM. […] Then the plate was kept shaking for 30 min at room temperature to allow the binding of the compounds to the proteins. After the preincubation, ATP and the substrate, a total of 5 μL was added into each well. The plate was then spun down at 1000 rpm for 2 minutes and kept shaking for 90 min at room temperature. ADP detection was performed following the guidance from the ADP-Glo Kinase Assay kits (Promega V9101). Briefly, 10 μL of ADP-Glo reagent was added into each well. The plate was then spun down at 1000 rpm for 2 minutes and kept shaking at room temperature for 60 min. Twenty μL of the kinase detection solution was added into each well. The plate was incubated at room temperature for 30 min in dark. The plates were read for luminescence signals in Tecan M1000 directly following the 30 min incubation. Relative inhibition of BTK kinase activities were analyzed by calculating the luminescence signal change:
(§5) Data was input into GraphPad Prism, and the IC50 values were calculated using function “log(inhibitor) vs. response—Variable slope (four parameters)”.
In general terms: ADP-Glo turns the ADP formed in a reaction into a luminescent signal.

In a further assay the target is T3, BTK-C481S (Homo sapiens, UniProt Q06187, C481S).
T3 construct: purchased Abcam ABCAM 204166; host or cells: Baculovirus infected Sf9 cells
Kind of assay: BTK-C481S kinase activity assay (ADP-Glo). In kind it is biochemical. The following applies: BTK kinase inhibition, 30 min preincubation, 90 min reaction. On the procedure:
as §4, §5

A further assay has as its target T4, BTK-C481S mutant (Homo sapiens, UniProt Q06187, C481S).
T4 construct: host or cells: HEK293 (ATCC CRL1573), lentiviral transduction, puromycin selected
The experiment in a line: BTK-Y223 autophosphorylation in HEK293 cells stably expressing BTK-C481S (HTRF). It is filed as cell-based. Conditions: 2 hours treatment. On the procedure: as §1, §2, §3

Assay [1] has as its system human TMD-8 diffuse large B-cell lymphoma cells. The experiment in a line: BTK-dependent cell proliferation in human TMD-8 cells (CellTiter-Glo). In kind it is cell-based. Conditions: TMD8, 72 h, TMD-8 DLBCL cells, 3 days, absolute IC50. The method, then: The human TMD-8 DLBCL cancer cells were cultured in RPMI media with high glucose and glutamine (Genesee 25-506), 20% heat-inactivated FBS (Gibco 10100), penicillin streptomycin (Thermal Fisher 15140122) and 1 mM sodium pyruvate (Thermal Fisher 11360070). TMD-8 cells were centrifuged at 300 g for 5 minutes and the cells were resuspended into fresh cell culture media. The cells were counted and made to a cell stock of 1.3 million/mL. Then 75 μL of cells were seeded into each well of a white 96-well cell culture plate (Corning 353286). A serial dilution of compounds was made and 25 μL was added to each well. The plates were incubated for 3 days in a humidified, 5% CO2 atmosphere at 37° C. Inhibition of cell growth by the compounds was determined by measuring the ATP level generated by the cells with the Cell Titer-Glo Luminescent Cell Viability Kit (Promega G7572). Assay procedures were conducted according to the protocols provided by Promega. In brief, the treated cell-culture plate and its contents were equilibrated at room temperature for approximately 30 minutes. 100 μL of CellTiter-Glo® Reagent was added into each cell-culture well, and contents were mixed for 2 minutes on an orbital shaker to induce cell lysis. The plate was incubated at room temperature for 10 minutes to stabilize luminescent signal. The resulting luminescence signal was immediately read using a TECAN plate reader. The relative cell grow inhibition was calculated by Cell Titer-Glo luminescent signal change.
The average readings of media-only wells and the readings of positive control wells (no compound treatment) were used to calculate response percentage.
The data was input into GraphPad Prism, and the curve fitting was made using function “log(inhibitor) vs. response—Variable slope (four parameters)”. The interpolation function was used to calculate absolute IC50 values.

T4 sequence (Q06187 whole entry C481S): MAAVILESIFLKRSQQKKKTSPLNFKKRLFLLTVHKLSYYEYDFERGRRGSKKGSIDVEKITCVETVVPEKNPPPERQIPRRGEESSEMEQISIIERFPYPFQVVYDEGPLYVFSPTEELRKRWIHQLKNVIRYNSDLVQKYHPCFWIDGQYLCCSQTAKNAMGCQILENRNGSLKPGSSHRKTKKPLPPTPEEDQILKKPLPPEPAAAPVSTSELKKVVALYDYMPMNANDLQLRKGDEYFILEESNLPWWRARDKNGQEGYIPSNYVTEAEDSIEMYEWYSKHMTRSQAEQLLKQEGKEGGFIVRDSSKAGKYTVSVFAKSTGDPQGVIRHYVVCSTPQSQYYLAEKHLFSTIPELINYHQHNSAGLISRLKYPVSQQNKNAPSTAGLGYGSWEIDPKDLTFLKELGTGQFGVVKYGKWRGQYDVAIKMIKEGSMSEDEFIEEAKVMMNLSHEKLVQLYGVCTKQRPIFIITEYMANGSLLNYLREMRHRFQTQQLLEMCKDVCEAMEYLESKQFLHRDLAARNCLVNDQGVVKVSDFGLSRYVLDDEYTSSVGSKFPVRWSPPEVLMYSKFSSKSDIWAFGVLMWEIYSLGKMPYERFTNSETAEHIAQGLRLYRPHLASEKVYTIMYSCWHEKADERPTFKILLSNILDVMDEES
T3 sequence (Q06187 whole entry C481S): as above
T1 sequence (Q06187 whole entry): as the sequence (Q06187 whole entry C481S) above, with S481C counted along it
T2 sequence (Q06187 whole entry): as the sequence (Q06187 whole entry C481S) above, with S481C counted along it

The IC50 is the concentration that gives 50% inhibition. Low readings indicate higher potency, high ones lower potency. `COc1ccc(F)cc1C(=O)NCc1ccc(-n2nc(C(C)C)c(N)c2C(N)=O)cc1` [Example A1, 4-amino-1-(4-((5-fluoro-2-methoxybenzamido)methyl)phenyl)-3-isopropyl-1H-pyrazole-5-carboxamide]: the IC50 turned out to be 55 nM at human BTK-WT; 5.6 nM against full-length human BTK-WT; 3.6 nM on BTK-C481S; 115 nM against BTK-C481S mutant; 47 nM in assay [1].

For the compound `CCOc1cc(CNC(=O)c2cc(F)ccc2OC)ccc1-n1nc(C(C)C)c(N)c1C(N)=O` [Example A5, 4-amino-1-(2-ethoxy-4-((5-fluoro-2-methoxybenzamido)methyl)phenyl)-3-isopropyl-1H-pyrazole-5-carboxamide], the IC50 against full-length human BTK-WT came out at 11 nM; against BTK-C481S, 11 nM; in assay [1], 240 nM.

`COc1ccccc1C(=O)NCc1ccc(-n2nc(C(C)C)c(N)c2C(N)=O)cc1` [Example A9, 4-amino-3-isopropyl-1-(4-((2-methoxybenzamido)methyl)phenyl)-1H-pyrazole-5-carboxamide]: the IC50 at human BTK-WT was 84 nM; at full-length human BTK-WT, 14 nM; against BTK-C481S, 14 nM; on BTK-C481S mutant, 170 nM; in assay [1], 140 nM.

As to `CC(C)c1nn(-c2ccc(CNC(=O)c3cccc4c3OCC4)cc2)c(C(N)=O)c1N` [Example A10, 4-amino-1-(4-((2,3-dihydrobenzofuran-7-carboxamido)methyl)phenyl)-3-isopropyl-1H-pyrazole-5-carboxamide], the IC50 at full-length human BTK-WT came out at 62 nM; against BTK-C481S, 60 nM.

Take `COc1ccc(F)cc1C(=O)NCc1ccc(-n2nc(C(C)C)c(N)c2C(N)=O)c(F)c1` [Example A11, 4-amino-1-(2-fluoro-4-((5-fluoro-2-methoxybenzamido)methyl)phenyl)-3-isopropyl-1H-pyrazole-5-carboxamide]: the IC50 turned out to be 35 nM on full-length human BTK-WT and 27 nM on BTK-C481S.

As for `COc1ccc(F)cc1C(=O)NCc1ccc(-n2nc(C3CCOCC3)c(N)c2C(N)=O)cc1` [Example A12, 4-amino-1-(4-((5-fluoro-2-methoxybenzamido)methyl)phenyl)-3-(tetrahydro-2H-pyran-4-yl)-1H-pyrazole-5-carboxamide], the IC50 against human BTK-WT was determined as 130 nM; against full-length human BTK-WT it was 26 nM; at BTK-C481S, 5.8 nM; against BTK-C481S mutant it was 180 nM; in assay [1], 160 nM.

With `COc1ccc(F)cc1C(=O)NCc1ccc(-n2nc(C3CCCOC3)c(N)c2C(N)=O)cc1` (stereo not drawn) [Example A13, 4-amino-1-(4-((5-fluoro-2-methoxybenzamido)methyl)phenyl)-3-(tetrahydro-2H-pyran-3-yl)-1H-pyrazole-5-carboxamide], the IC50 is 57 nM against human BTK-WT; 4.4 nM against full-length human BTK-WT; 2.7 nM against BTK-C481S; 120 nM at BTK-C481S mutant; 95 nM in assay [1].

With `COc1ccc(F)cc1C(=O)NCc1ccc(-n2nc(-c3cccs3)c(N)c2C(N)=O)cc1` [Example A14, 4-amino-1-(4-((5-fluoro-2-methoxybenzamido)methyl)phenyl)-3-(thiophen-2-yl)-1H-pyrazole-5-carboxamide], the IC50 against human BTK-WT is 81 nM; at full-length human BTK-WT, 7.9 nM; at BTK-C481S it was 3.1 nM; at BTK-C481S mutant, 210 nM; in assay [1] it was 95 nM.

As to `COc1ccc(F)cc1C(=O)NCc1ccc(-n2nc(C3CCCC3)c(N)c2C(N)=O)cc1` [Example A15, 4-amino-3-cyclopentyl-1-(4-((5-fluoro-2-methoxybenzamido)methyl)phenyl)-1H-pyrazole-5-carboxamide], the IC50 is 27 nM against human BTK-WT; 3.7 nM at full-length human BTK-WT; 4.2 nM against BTK-C481S; 84 nM on BTK-C481S mutant; 29 nM in assay [1].

Consider `COc1ccc(F)cc1C(=O)NCc1ccc(-n2nc(C3CCOC3)c(N)c2C(N)=O)cc1` (stereo not drawn) [Example A16, 4-amino-1-(4-((5-fluoro-2-methoxybenzamido)methyl)phenyl)-3-(tetrahydrofuran-3-yl)-1H-pyrazole-5-carboxamide], for which the IC50 against human BTK-WT stood at 120 nM; on full-length human BTK-WT, 15 nM; against BTK-C481S, 11 nM; on BTK-C481S mutant it was 230 nM; in assay [1], 120 nM.

In the case of `COc1ccc(F)cc1C(=O)NCc1ccc(-n2nc(N3CCOCC3)c(N)c2C(N)=O)cc1` [Example A17, 4-amino-1-(4-((5-fluoro-2-methoxybenzamido)methyl)phenyl)-3-morpholino-1H-pyrazole-5-carboxamide], the IC50 was 87 nM on full-length human BTK-WT and 93 nM at BTK-C481S.

For the compound `CCOc1cc(CNC(=O)c2cc(F)ccc2OC)cc(F)c1-n1nc(C(C)C)c(N)c1C(N)=O` [Example A19, 4-amino-1-(2-ethoxy-6-fluoro-4-((5-fluoro-2-methoxybenzamido)methyl)phenyl)-3-isopropyl-1H-pyrazole-5-carboxamide], the results for the IC50 against full-length human BTK-WT and against BTK-C481S were 63 nM and 68 nM, respectively.

As for `COc1ccc(F)cc1C(=O)NCc1ccc(-n2nc(C3CCC(F)(F)CC3)c(N)c2C(N)=O)cc1` [Example A22, 4-amino-3-(4,4-difluorocyclohexyl)-1-(4-((5-fluoro-2-methoxybenzamido)methyl)phenyl)-1H-pyrazole-5-carboxamide], the IC50 at human BTK-WT amounted to 74 nM; against full-length human BTK-WT, 8.1 nM; against BTK-C481S it was 8 nM; against BTK-C481S mutant, 120 nM; in assay [1], 110 nM.
